pIC50: −log10 of the molar value.

Bruton's Tyrosine Kinase (BTK), inactivated state, sequence (Q06187 whole entry): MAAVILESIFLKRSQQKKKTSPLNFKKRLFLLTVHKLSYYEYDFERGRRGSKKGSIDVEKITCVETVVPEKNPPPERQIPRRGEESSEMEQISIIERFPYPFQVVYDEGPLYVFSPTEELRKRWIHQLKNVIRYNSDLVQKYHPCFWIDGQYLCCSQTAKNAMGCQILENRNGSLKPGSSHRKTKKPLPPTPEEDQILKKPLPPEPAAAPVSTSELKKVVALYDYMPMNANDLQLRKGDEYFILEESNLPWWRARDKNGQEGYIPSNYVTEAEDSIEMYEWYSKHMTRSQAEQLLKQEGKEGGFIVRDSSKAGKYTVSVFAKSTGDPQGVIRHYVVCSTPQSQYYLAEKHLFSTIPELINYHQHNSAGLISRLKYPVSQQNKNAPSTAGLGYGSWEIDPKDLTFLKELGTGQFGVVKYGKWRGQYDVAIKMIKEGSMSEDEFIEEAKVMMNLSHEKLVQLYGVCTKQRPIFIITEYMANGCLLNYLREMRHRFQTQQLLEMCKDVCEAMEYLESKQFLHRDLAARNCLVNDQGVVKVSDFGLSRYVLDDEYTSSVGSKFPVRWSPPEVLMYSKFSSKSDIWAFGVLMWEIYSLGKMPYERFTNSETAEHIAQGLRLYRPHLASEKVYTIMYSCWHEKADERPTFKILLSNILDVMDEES

This assay has as its target Bruton's Tyrosine Kinase (BTK), inactivated state (Homo sapiens (Human), UniProt Q06187). As to the kind of experiment: BTK inhibition TR-FRET competition assay. The class given is binding. The note with it: TR-FRET competition with Kinase Tracer 178, 18-24 h at 14° C. The method, then: This BTK competition assay measures compound potency (IC50) for the inactivated state of Bruton's Tyrosine Kinase using FRET (Förster/Flouresence Resonance Energy Transfer) technology. The BTK-Eu complex was incubated on ice one hour prior to use at a starting concentration of 50 nM BTK-BioeaseTM: 10 nM Eu-streptavidin (Perkin-Elmer Catalog# AD0062). The assay buffer consisted of 20 mM HEPES (pH 7.15), 0.1 mM DTT, 10 mM MgCl2, 0.5 mg/ml BSA with 3% Kinase Stabilizer (Fremont Biosolutions, Catalog #STB-K02). After 1 h, the reaction mixture from above was diluted 10 fold in assay buffer to make 5 nM BTK: 1 nM Eu-Streptavidin complex (donor fluorophore). 18 μl of a mixture of 0.11 nM BTK-Eu and 0.11 nM Kinase Tracer 178 (Invitrogen, Catalog #PV5593,) with BTK-Eu alone as no negative control, was then dispensed into 384-well flat bottom plates (Greiner, 784076). Compounds to be tested in assay were prepared as 10× concentrations and serial dilution in half-log increments was performed in DMSO so as to generate 10 point curves. To initiate the FRET reaction, compounds prepared as 10× stock in DMSO was added to the plates and the plates were incubated 18-24 h at 14° C. After the incubation the plates were read on a BMG Pherastar Fluorescent plate reader (or equivalent) and used to measure the emission energy from the europium donor fluorophore (620 nm emission) and the FRET (665 nm emission). The negative control well values were averaged to obtain the mean minimum. The positive “no inhibitor” control wells were averaged to obtain the mean maximum. […] The mean IC50 and standard deviation will be derived from duplicate curves (singlet inhibition curves from two independent dilutions) using Microsoft Excel.
Background: Time-resolved FRET reads energy transfer from a long-lived donor to a nearby acceptor.
As usually defined, the pIC50 is the negative decadic logarithm of the IC50, by convention in mol/L. Take `CC(C)(C)c1ccc(C(=O)NC2CCCC(Nc3ncnc4[nH]cnc34)C2)cc1` (stereo not shown) [Compound 1, 4-tert-Butyl-N-[3-(7H-purin-6-ylamino)-cyclohexyl]-benzamide]: the pIC50 is 5.02.
`O=C(NCc1cccc(Cl)c1)C1CCCC(Nc2ncnc3[nH]cnc23)C1` (stereo not shown) [Compound 2, 3-(9H-Purin-6-ylamino)-cyclohexanecarboxylic acid 3-chloro-benzylamide] had a negative logarithm of the IC50 (pIC50) of 4.00.
In turn, `Cn1cc(Nc2nc(NC3CCCCC3)c3nc[nH]c3n2)cn1` [Compound 3, N*6*-Cyclohexyl-N*2*-(1-methyl-1H-pyrazol-4-yl)-9H-purine-2,6-diamine] gave a negative logarithm of the IC50 (pIC50) of 5.55.
`CC1CCCC(Nc2nc(Nc3cnn(C)c3)nc3[nH]cnc23)C1` (stereo not shown) [Compound 4, N*6*-(3-Methyl-cyclohexyl)-N*2*-(1-methyl-1H-pyrazol-4-yl)-9H-purine-2,6-diamine] showed a negative logarithm of the IC50 (pIC50) of 4.39.
For `Cn1cc(Nc2nc(NC3CCCC(NC(=O)c4ccc(C(C)(C)C)cc4)C3)c3nc[nH]c3n2)cn1` (stereo not shown) [Compound 5, 4-tert-butyl-N-{3-[2-(1-methyl-1H-pyrazol-4-ylamino)-9H-purin-6-ylamino]-cyclohexyl}-benzamide], the pIC50 is 7.24.
As for `O=C(NC1CCCC(Nc2ncnc3[nH]cnc23)C1)c1ccccc1` (stereo not shown) [Compound 6], the pIC50 was 7.34.
For `CC(C)(C)OC(=O)NC1CCCC(C(=O)O)C1` (stereo not shown) [Compound 7], the negative logarithm of the IC50 (pIC50) is 6.96.

These data come from patent publication US9469644B2, “Inhibitors of Bruton's tyrosine kinase” (Hoffmann-La Roche Inc., priority 2013, dated 2016).
